Experimental data taken from patent US5512434A (priority 1992, dated 1996).

Legend:
[1] = molecular target: T1, human phosphatase VHR, wild type, SEQ ID NO:2 (Homo sapiens, UniProt P51452); assay type: biochemical
T1 construct: fragment containing the entire VHR coding region; glutathione-S-transferase (GST), pGEX-KT (N, cleaved yes); made in house
Experimental: (§1) Production and purification of bacterially-expressed VHR. A 0.8 kB SalI-HinDIII fragment containing the entire VHR coding region was blunt-ended with DNA polymerase (Klenow fragment), and BamHI linkers were added. DNA was digested with BamHI, and inserted in-frame into the BamHI site of the pGEX-KT expression vector, described in Hakes et al., Anal. Biochem. 202:293-298 (1992), to produce pGEX-VHR. Plasmid pGEX-VHR was used to express VHR as a fusion protein with glutathione-S-transferase (GST). Expression and purification of GST-VHR was performed as described for a rat brain PTP. Guan et al. (Anal. Biochem. 1991). […] VHR protein, obtained by thrombin cleavage of the purified GST fusion protein, was used for phosphatase assays.
(§2) Phosphatase assays with purified VHR. Dephosphorylation of p-nitrophenylphosphate (pNPP) was performed as described previously. Tonks et al., J. Biol. Chem. 263:6731-6737 (1988).
(§3) Fischer et al. (1991); Hunter et al. (1989).

[2] = molecular target: human phosphatase VHR as GST-VHR fusion protein (glutathione-S-transferase fusion, VHR SEQ ID NO:2) (Homo sapiens, UniProt P51452); conditions: hydrolysis of pNPP, absorbance at 410 nm
Experimental: as §1, §2, §3

[3] = molecular target: highly purified PDGF receptor (baculovirus-expressed)
[4] = molecular target: human phosphatase VHR (clone 27 lysate, pCEV27) (Homo sapiens, UniProt P51452); conditions: 3 mM sodium vanadate, 37 C, 30 minutes
Chain of human phosphatase VHR (clone 27 lysate, pCEV27) (P51452 whole entry): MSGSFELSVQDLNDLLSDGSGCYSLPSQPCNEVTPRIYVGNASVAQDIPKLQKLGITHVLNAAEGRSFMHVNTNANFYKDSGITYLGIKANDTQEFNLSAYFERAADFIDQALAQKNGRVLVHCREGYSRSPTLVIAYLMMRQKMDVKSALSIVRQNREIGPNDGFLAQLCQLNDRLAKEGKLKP
Experimental: Phosphatase assays with bacterial extracts. […] Cultures of E. coli strain Y1091 (50 ml), carrying either pCEV-bek, pCEV-lacZ (pCEV-lacZ vector without an insert), or pCEV27 were grown and induced with 1 mM IPTG as described. […] Cells were collected by centrifugation and lysed in 1 ml of buffer containing 50 mM HEPES, pH 7.4, 1% Triton X-100, and 1 mM phenylmethylsulfonyl fluoride. Lysates were sonicated twice for ten seconds each, clarified by centrifugation, and the supernatants were tested for phosphatase activity.
The reaction was stopped by boiling in sodium dodecyl sulfate polyacrylamide gel electrophoresis (SDS-PAGE) sample buffer, described by Laemmli, Nature 227:680-685 (1970), for three minutes. The Sample was divided into two equal aliquots, resolved by 6.5% SDS-PAGE, and transferred to Immobilon (Milipore).
Immunoblotting was performed with monoclonal anti-pTyr (Upstate Biotechnology, Inc.) or monoclonal anti-β-gal antibodies (Promega) as described previously.

T1 sequence (P51452 whole entry, the tested form may be a part): as the sequence (P51452 whole entry) above
Chain of human phosphatase VHR as GST-VHR fusion protein (glutathione-S-transferase fusion, VHR SEQ ID NO:2) (P51452 whole entry, the tested form may be a part): as the sequence (P51452 whole entry) above

## C=C1[C@@H](O)[C@@H]2O[C@]3(CC[C@H](/C=C/[C@@H](C)[C@@H]4CC(C)=C[C@@]5(O[C@H](C[C@@](C)(O)C(=O)O)CC[C@H]5O)O4)O3)CC[C@H]2O[C@@H]1[C@@H](O)C[C@H](C)[C@H]1O[C@@]2(CCCCO2)CC[C@H]1C [Okadaic acid]
[1]
  inhibitory effect on the enzyme activity (pNPP hydrolysis): no inhibitory effect

## O=[N+]([O-])c1ccc(OP(=O)(O)O)cc1 [pNPP, p-nitrophenylphosphate]
[1]; compared with GST-VHR fusion, data not shown
  Km (pNPP) after cleavage of the VHR from GST with thrombin: unchanged
[2]
  Km (pNPP): in the micromolar range

## [F-].[Na+] [sodium fluoride]
[1]
  inhibitory effect on the enzyme activity (pNPP hydrolysis): no inhibitory effect

## VHR (enzyme)
[3]
  Km of dephosphorylation (anti-pTyr/[125I]-protein A immunoblot, PhosphorImager): < 100 mM

## sodium vanadate
[4]
  inhibition of the reduction of pTyr content of beta-gal-bek by clone 27 lysate: inhibited
[1]
  inhibition of pNPP hydrolysis by the phosphatase: completely inhibited
